In paper PMC6399351, “Cationic Intrinsically Disordered Antimicrobial Peptides (CIDAMPs) Represent a New Paradigm of Innate Defense with a Potential for Novel Anti-Infectives” (Scientific Reports, 2019):
Values joined by “and” are separate entries in the source; they are usually repeats but may differ in a detail not shown here. Identical values can stand only once. Ends that are not written are not given here. Peptide text beside a SMILES is read from it. * marks the point of attachment. Palmitoyl = CCCCCCCCCCCCCCCC(=O)*; Myristoyl = CCCCCCCCCCCCCC(=O)*

These compounds were tested on S. aureus ATCC 6538. Details: CFU assay, 10 mM NaP, pH 5.5, 0.25% glucose.

Row | Compound | LD90 [µg/mL] | LD100
1 | CCCCCCCCCCCCCCCC(=O)SC[C@H](NC(=O)[C@H](Cc1ccccc1)NC(=O)[C@H](Cc1c[nH]cn1)NC(=O)CNC(=O)[C@H](CO)NC(=O)CNC(=O)[C@H](CO)NC(=O)CNC(=O)[C@H](Cc1c[nH]cn1)NC(=O)[C@H](CCC(N)=O)NC(=O)[C@H](CO)NC(=O)[C@H](Cc1ccc(O)cc1)NC(=O)[C@H](C)NC(=O)[C@H](CO)NC(=O)[C@H](CO)NC(=O)[C@H](Cc1c[nH]cn1)NC(=O)CNC(=O)[C@H](CO)NC(=O)CNC(=O)[C@H](CO)NC(=O)[C@H](CCC(=O)O)NC(=O)[C@H](Cc1c[nH]cn1)NC(=O)[C@H](CCC(N)=O)NC(=O)CNC(=O)[C@H](Cc1ccccc1)NC(=O)[C@@H](NC(=O)[C@H](CO)NC(=O)[C@H](CO)NC(=O)[C@H](Cc1c[nH]cn1)NC(=O)CNC(=O)[C@@H](N)CO)C(C)C)C(N)=O [S-Pal-HRNR1748–1778] (H-SGHSSVFGQHESGSGHSSAYSQHGSGSGHFC(Palmitoyl)-NH2; N-terminus assumed) | 0.3 | 9.38 µg/mL
2 | N=C(N)NCCC[C@H](NC(=O)[C@H](CC(=O)O)NC(=O)[C@H](CS)NC(=O)[C@H](CO)NC(=O)[C@H](CC(N)=O)NC(=O)[C@H](CO)NC(=O)[C@H](CCCNC(=N)N)NC(=O)[C@H](CCC(N)=O)NC(=O)[C@H](CCCNC(=N)N)NC(=O)[C@H](CCCNC(=N)N)NC(=O)[C@H](CS)NC(=O)[C@H](CCC(N)=O)NC(=O)[C@H](Cc1c[nH]cn1)NC(=O)[C@H](CO)NC(=O)[C@H](CCCNC(=N)N)NC(=O)[C@H](Cc1ccccc1)NC(=O)[C@H](Cc1c[nH]cn1)NC(=O)[C@H](CCCNC(=N)N)NC(=O)[C@H](Cc1c[nH]cn1)NC(=O)[C@H](Cc1c[nH]cn1)NC(=O)[C@@H](N)CO)C(=O)O [LCE-3C55-75] (H-SHHRHFRSHQCRRQRSNSCDR-OH; N-terminus and C-terminus assumed) | 0.59 | > 150 µg/mL
3 | CCCCCCCCCCCCCCCC(=O)SC[C@H](NC(=O)[C@H](CO)NC(=O)[C@H](CO)NC(=O)[C@H](CO)NC(=O)[C@H](CCC(N)=O)NC(=O)CNC(=O)[C@H](CO)NC(=O)[C@H](C)NC(=O)[C@H](CO)NC(=O)CNC(=O)[C@H](Cc1c[nH]cn1)NC(=O)[C@H](CCC(N)=O)NC(=O)CNC(=O)[C@H](Cc1c[nH]cn1)NC(=O)[C@@H](NC(=O)[C@H](CO)NC(=O)[C@H](CO)NC(=O)[C@H](Cc1c[nH]cn1)NC(=O)CNC(=O)[C@H](CO)NC(=O)[C@H](CO)NC(=O)[C@H](CO)NC(=O)CNC(=O)[C@H](Cc1c[nH]cn1)NC(=O)[C@H](CCC(N)=O)NC(=O)CN)[C@@H](C)O)C(N)=O [S-Pal-HRNR2004–2029] (H-GQHGSSSGHSSTHGQHGSASGQSSSC(Palmitoyl)-NH2; N-terminus assumed) | 0.59 | > 150 µg/mL and 75 µg/mL
4 | CCCCCCCCCCCCCCCC(=O)SC[C@H](NC(=O)[C@H](CO)NC(=O)[C@H](CO)NC(=O)[C@H](CO)NC(=O)[C@H](CCC(N)=O)NC(=O)CNC(=O)[C@H](CO)NC(=O)[C@@H](NC(=O)[C@H](CO)NC(=O)CNC(=O)[C@H](Cc1c[nH]cn1)NC(=O)[C@H](CCC(N)=O)NC(=O)CNC(=O)[C@H](Cc1c[nH]cn1)NC(=O)[C@@H](NC(=O)[C@H](CO)NC(=O)[C@H](CO)NC(=O)[C@H](Cc1c[nH]cn1)NC(=O)CNC(=O)[C@H](CO)NC(=O)[C@H](CO)NC(=O)[C@H](CO)NC(=O)CNC(=O)[C@H](Cc1c[nH]cn1)NC(=O)[C@H](CCC(N)=O)NC(=O)CN)[C@@H](C)O)[C@@H](C)O)C(N)=O [S-Pal-HRNR598–623] (H-GQHGSSSGHSSTHGQHGSTSGQSSSC(Palmitoyl)-NH2; N-terminus assumed) | 2.35 | > 150 µg/mL
5 | CCCCCCCCCCCCCCCC(=O)SC[C@H](N)C(=O)NCC(=O)N[C@@H](CCC(N)=O)C(=O)N[C@@H](Cc1c[nH]cn1)C(=O)NCC(=O)N[C@@H](C)C(=O)N[C@H](C(=O)N[C@@H](CO)C(=O)N[C@@H](CO)C(=O)NCC(=O)N[C@@H](CCC(N)=O)C(=O)N[C@@H](CO)C(=O)N[C@@H](CO)C(=O)N[C@@H](CO)C(=O)N[C@@H](Cc1c[nH]cn1)C(=O)NCC(=O)N[C@@H](CCC(N)=O)C(=O)N[C@@H](Cc1c[nH]cn1)C(=O)NCC(=O)N[C@@H](CO)C(=O)NCC(=O)N[C@@H](CO)C(=O)N[C@@H](CO)C(=O)N[C@@H](CCC(N)=O)C(=O)N[C@@H](CO)C(=O)N[C@@H](CO)C(=O)NCC(=O)N[C@@H](Cc1ccc(O)cc1)C(=O)NCC(=O)N[C@@H](CCCNC(=N)N)C(=O)O)[C@@H](C)O [S-Pal-HRNR1089–1117] (H-C(Palmitoyl)GQHGATSSGQSSSHGQHGSGSSQSSGYGR-OH; N-terminus and C-terminus assumed) |  | > 150 µg/mL
6 | CCCCCCCCCCCCCCCC(=O)SC[C@H](NC(=O)CNC(=O)[C@H](CO)NC(=O)[C@H](CO)NC(=O)[C@H](CCC(N)=O)NC(=O)[C@H](Cc1c[nH]c2ccccc12)NC(=O)[C@H](CO)NC(=O)[C@H](CO)NC(=O)[C@H](CO)NC(=O)[C@H](CCC(=O)O)NC(=O)[C@H](Cc1c[nH]cn1)NC(=O)[C@H](Cc1c[nH]cn1)NC(=O)CNC(=O)[C@H](Cc1ccccc1)NC(=O)CNC(=O)[C@H](CO)NC(=O)[C@H](CO)NC(=O)[C@H](CCC(N)=O)NC(=O)CNC(=O)[C@H](CO)NC(=O)CNC(=O)[C@H](CO)NC(=O)CNC(=O)[C@H](Cc1c[nH]cn1)NC(=O)[C@H](CCCNC(=N)N)NC(=O)CN)C(N)=O [S-Pal-HRNR1389–1414] (H-GRHGSGSGQSSGFGHHESSSWQSSGC(Palmitoyl)-NH2; N-terminus assumed) | 1.18 | 18.8 µg/mL
7 | Pal-SHHRHFRSHQCRRQRS NSCDR [Pal-LCE-3C55-75] | 0.15 | 0.59 µg/mL
8 | SHHRPRLFHRRRH [LCE-2B74-86] | 1.18 | > 150 µg/mL
9 | CCCCCCCCCCCCCCCC(=O)SC[C@H](N)C(=O)NCC(=O)N[C@@H](CCC(N)=O)C(=O)N[C@@H](Cc1c[nH]cn1)C(=O)NCC(=O)N[C@@H](C)C(=O)N[C@H](C(=O)N[C@@H](CO)C(=O)NCC(=O)N[C@@H](CCC(N)=O)C(=O)N[C@@H](CO)C(=O)N[C@@H](CO)C(=O)N[C@@H](CO)C(=O)N[C@@H](Cc1c[nH]cn1)C(=O)NCC(=O)N[C@@H](CCC(N)=O)C(=O)N[C@@H](Cc1c[nH]cn1)C(=O)NCC(=O)N[C@@H](CO)C(=O)NCC(=O)N[C@@H](CO)C(=O)N[C@@H](CO)C(=O)N[C@@H](CCC(N)=O)C(=O)N[C@@H](CO)C(=O)N[C@@H](CO)C(=O)N[C@@H](CCCNC(=N)N)C(=O)O)[C@@H](C)O [S-Pal-HRNR623–648] (H-C(Palmitoyl)GQHGATSGQSSSHGQHGSGSSQSSR-OH; N-terminus and C-terminus assumed) | 2.35 | > 150 µg/mL
10 | GRRGGGGGRGGGRGGRGGGGGR [HR 1-18,G+R] | > 300 | > 300 µg/mL

Same assay, conditions: CFU assay, 10 mM NaP, pH 7.3, 1% TSB

Row | Compound | LD90 [µg/mL] | LD100 [µg/mL]
11 | CCCCCCCCCCCCCC(=O)NCC(=O)N[C@@H](CCCNC(=N)N)C(=O)N[C@@H](CCCNC(=N)N)C(=O)NCC(=O)N[C@@H](CO)C(=O)NCC(=O)N[C@@H](CC(C)C)C(=O)NCC(=O)N[C@@H](CCCNC(=N)N)C(=O)N[C@@H](CO)C(=O)N[C@@H](CO)C(=O)N[C@@H](CO)C(=O)N[C@@H](CCCNC(=N)N)C(=O)NCC(=O)N[C@@H](CCC(N)=O)C(=O)N[C@@H](CCCNC(=N)N)C(=O)NCC(=O)N[C@@H](CO)C(=O)NCC(=O)N[C@@H](CO)C(=O)NCC(=O)N[C@@H](CCCNC(=N)N)C(=O)O [Myr-HR 1-18-HR] (Myristoyl-GRRGSGLGRSSSRGQRGSGSGR-OH; C-terminus assumed) | 18.75 | 75
